Test results taken from ChEMBL document CHEMBL1201862, “PubChem BioAssay data set” (2004).
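Each compound was tested at five concentrations against cells in 96-well plates for 48 hours. At the GI50, growth is halved.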 The source made the active and inactive calls. No stated cut-off is given here; in the data, active = GI50 up to about 1.1 µM and inactive = higher.

How the values were obtained:
Assay in all cases: NCI anticancer screen, dose series, 48 h
COLO 205 = system: COLO 205
SF-295 = system: SF-295
HT-29 = system: HT-29
SK-MEL-2 = system: SK-MEL-2
SK-OV-3 = system: SK-OV-3
NCI/ADR-RES = system: NCI/ADR-RES
T47D = system: T47D
OVCAR-4 = system: OVCAR-4
NCI-H460 = system: NCI-H460
HCC 2998 = system: HCC 2998
MCF7 = system: MCF7
M14 = system: M14
SK-MEL-28 = system: SK-MEL-28
CCRF-CEM = system: CCRF-CEM
OVCAR-5 = system: OVCAR-5
Hs-578T = system: Hs-578T
SNB-75 = system: SNB-75
SK-MEL-5 = system: SK-MEL-5
A498 = system: A498
SF-268 = system: SF-268
OVCAR-8 = system: OVCAR-8
HL-60 = system: HL-60
NCI-H522 = system: NCI-H522
EKVX = system: EKVX
CAKI-1 = system: CAKI-1
MOLT-4 = system: MOLT-4
RXF 393 = system: RXF 393
OVCAR-3 = system: OVCAR-3
NCI-H23 = system: NCI-H23
BT-549 = system: BT-549
ACHN = system: ACHN
HOP-62 = system: HOP-62
HCT-116 = system: HCT-116
DU-145 = system: DU-145
Malme-3M = system: Malme-3M
HOP-92 = system: HOP-92
KM12 = system: KM12
SNB-19 = system: SNB-19
786-0 = system: 786-0
K562 = system: K562
MDA-MB-435 = system: MDA-MB-435
SF-539 = system: SF-539
HCT-15 = system: HCT-15
U-251 = system: U-251
SW-620 = system: SW-620
PC-3 = system: PC-3
TK-10 = system: TK-10
A549 = system: A549
LOX IMVI = system: LOX IMVI
IGROV-1 = system: IGROV-1
RPMI-8226 = system: RPMI-8226
MDA-MB-231 = system: MDA-MB-231
UO-31 = system: UO-31
NCI-H226 = system: NCI-H226
UACC-257 = system: UACC-257
UACC-62 = system: UACC-62
SN12C = system: SN12C

COc1cc2c(cc1C)NC(=O)/C2=C/c1cccnc1
GI50 (COLO 205): 15.6 µM (inactive)
GI50 (SF-295): 12.5 µM (inactive)
GI50 (HT-29): 17.7 µM (inactive)
GI50 (SK-MEL-2): 16 µM (inactive)
GI50 (SK-OV-3): 7.03 µM (inactive)
GI50 (NCI/ADR-RES): 12.1 µM (inactive)
GI50 (T47D): 2.84 µM (inactive)
GI50 (OVCAR-4): 26.1 µM (inactive)
GI50 (NCI-H460): 9.02 µM (inactive)
GI50 (HCC 2998): 2.34 µM (inactive)
GI50 (MCF7): 5.74 µM (inactive)
GI50 (M14): 14 µM (inactive)
GI50 (SK-MEL-28): 45.9 µM (inactive)
GI50 (CCRF-CEM): 7.01 µM (inactive)
GI50 (OVCAR-5): 13.6 µM (inactive)
GI50 (Hs-578T): 27.4 µM (inactive)
GI50 (SNB-75): 45 µM (inactive)
GI50 (SK-MEL-5): 11 µM (inactive)
GI50 (A498): 10.8 µM (inactive)
GI50 (SF-268): 15.6 µM (inactive)
GI50 (OVCAR-8): 14.6 µM (inactive)
GI50 (HL-60): 4.04 µM (inactive)
GI50 (NCI-H522): 13 µM (inactive)
GI50 (EKVX): 18.3 µM (inactive)
GI50 (CAKI-1): 10.1 µM (inactive)
GI50 (MOLT-4): 1.23 µM (inactive)
GI50 (RXF 393): 7.8 µM (inactive)
GI50 (OVCAR-3): 12.3 µM (inactive)
GI50 (NCI-H23): 9.86 µM (inactive)
GI50 (BT-549): 22.6 µM (inactive)
GI50 (ACHN): 11.9 µM (inactive)
GI50 (HOP-62): 11.7 µM (inactive)
GI50 (HCT-116): 12.5 µM (inactive)
GI50 (DU-145): 12.3 µM (inactive)
GI50 (Malme-3M): 16.4 µM (inactive)
GI50 (HOP-92): 15.3 µM (inactive)
GI50 (KM12): 8.32 µM (inactive)
GI50 (SNB-19): 11.7 µM (inactive)
GI50 (786-0): 16 µM (inactive)
GI50 (K562): 5.31 µM (inactive)
GI50 (MDA-MB-435): 12.9 µM (inactive)
GI50 (SF-539): 26.9 µM (inactive)
GI50 (HCT-15): 11 µM
GI50 (U-251): 9.55 µM (inactive)
GI50 (SW-620): 20.8 µM (inactive)
GI50 (PC-3): 17.9 µM (inactive)
GI50 (TK-10): 11.9 µM (inactive)

C(=N\N=C1NCCCCN1)/c1ccc2ccccc2c1
GI50 (COLO 205): 15.9 µM (inactive)
GI50 (SF-295): 21.3 µM (inactive)
GI50 (HT-29): 22.8 µM (inactive)
GI50 (SK-MEL-2): 21.9 µM (inactive)
GI50 (A549): 50.2 µM (inactive)
GI50 (SK-OV-3): 27.2 µM (inactive)
GI50 (NCI/ADR-RES): 98.2 µM (inactive)
GI50 (T47D): 18.4 µM (inactive)
GI50 (OVCAR-4): 43.1 µM (inactive)
GI50 (NCI-H460): 22.3 µM (inactive)
GI50 (HCC 2998): 15.3 µM (inactive)
GI50 (MCF7): 29.4 µM (inactive)
GI50 (M14): 14.5 µM (inactive)
GI50 (SK-MEL-28): 21.3 µM (inactive)
GI50 (CCRF-CEM): 33.7 µM (inactive)
GI50 (OVCAR-5): 25.2 µM (inactive)
GI50 (Hs-578T): 92.9 µM (inactive)
GI50 (SNB-75): 13 µM (inactive)
GI50 (SK-MEL-5): 17.4 µM (inactive)
GI50 (LOX IMVI): 15.7 µM (inactive)
GI50 (SF-268): 45.3 µM (inactive)
GI50 (OVCAR-8): 43.7 µM (inactive)
GI50 (HL-60): 23.3 µM (inactive)
GI50 (IGROV-1): 40.9 µM (inactive)
GI50 (NCI-H522): 26.7 µM (inactive)
GI50 (EKVX): 46.7 µM (inactive)
GI50 (RPMI-8226): 27.5 µM (inactive)
GI50 (MDA-MB-231): 31.4 µM (inactive)
GI50 (UO-31): 36.8 µM (inactive)
GI50 (NCI-H226): 24.7 µM (inactive)
GI50 (MOLT-4): 23.5 µM (inactive)
GI50 (RXF 393): 22.8 µM (inactive)
GI50 (OVCAR-3): 46.8 µM (inactive)
GI50 (UACC-257): 21.9 µM (inactive)
GI50 (NCI-H23): 76.7 µM (inactive)
GI50 (BT-549): 37.2 µM (inactive)
GI50 (ACHN): 45.4 µM (inactive)
GI50 (HOP-62): 42.2 µM (inactive)
GI50 (HCT-116): 33.7 µM (inactive)
GI50 (DU-145): 67.3 µM (inactive)
GI50 (Malme-3M): 16.3 µM (inactive)
GI50 (HOP-92): 14.4 µM (inactive)
GI50 (KM12): 26.9 µM (inactive)
GI50 (SNB-19): 61.5 µM (inactive)
GI50 (UACC-62): 31 µM (inactive)
GI50 (786-0): 23.1 µM (inactive)
GI50 (SN12C): 39.9 µM (inactive)
GI50 (K562): 20.9 µM (inactive)
GI50 (MDA-MB-435): 17.2 µM (inactive)
GI50 (SF-539): 20.4 µM (inactive)
GI50 (HCT-15): 28.1 µM
GI50 (U-251): 21.3 µM (inactive)
GI50 (SW-620): 22.7 µM (inactive)
GI50 (PC-3): 29.6 µM (inactive)
GI50 (TK-10): 37.9 µM (inactive)

CSc1nncc(-c2cc3c(c(SC)n2)CCC3)n1
GI50 (COLO 205): > 100 µM (inactive)
GI50 (SF-295): > 100 µM (inactive)
GI50 (HT-29): > 100 µM (inactive)
GI50 (SK-MEL-2): > 100 µM (inactive)
GI50 (A549): > 100 µM (inactive)
GI50 (SK-OV-3): > 100 µM (inactive)
GI50 (NCI/ADR-RES): 69.5 µM (inactive)
GI50 (OVCAR-4): 48.1 µM (inactive)
GI50 (M14): > 100 µM (inactive)
GI50 (SK-MEL-28): > 100 µM (inactive)
GI50 (CCRF-CEM): > 100 µM (inactive)
GI50 (OVCAR-5): > 100 µM (inactive)
GI50 (SNB-75): 22.1 µM (inactive)
GI50 (SK-MEL-5): > 100 µM (inactive)
GI50 (SF-268): 76 µM (inactive)
GI50 (OVCAR-8): 24.4 µM (inactive)
GI50 (HL-60): > 100 µM (inactive)
GI50 (IGROV-1): 2.4 µM (inactive)
GI50 (NCI-H522): 28.8 µM (inactive)
GI50 (EKVX): > 100 µM (inactive)
GI50 (RPMI-8226): > 100 µM (inactive)
GI50 (CAKI-1): 40.7 µM (inactive)
GI50 (MDA-MB-231): 18.9 µM (inactive)
GI50 (UO-31): > 100 µM (inactive)
GI50 (NCI-H226): > 100 µM (inactive)
GI50 (RXF 393): > 100 µM (inactive)
GI50 (OVCAR-3): > 100 µM (inactive)
GI50 (UACC-257): > 100 µM (inactive)
GI50 (NCI-H23): > 100 µM (inactive)
GI50 (BT-549): > 100 µM (inactive)
GI50 (ACHN): 53.6 µM (inactive)
GI50 (HOP-62): > 100 µM (inactive)
GI50 (HCT-116): 96.2 µM (inactive)
GI50 (DU-145): > 100 µM (inactive)
GI50 (KM12): > 100 µM (inactive)
GI50 (SNB-19): > 100 µM (inactive)
GI50 (UACC-62): > 100 µM (inactive)
GI50 (786-0): 79.6 µM (inactive)
GI50 (SN12C): > 100 µM (inactive)
GI50 (MDA-MB-435): > 100 µM (inactive)
GI50 (HCT-15): > 100 µM
GI50 (U-251): 25.9 µM (inactive)
GI50 (SW-620): 82.4 µM (inactive)
GI50 (PC-3): > 100 µM (inactive)
GI50 (TK-10): > 100 µM (inactive)
